{"source": "patent US9371362B2", "about": "“Prostate specific antigen agents and methods of using same for prostate cancer imaging” (VisEn Medical, Inc., priority 2012, dated 2016)", "key": {"[1]": {"tested_on": "LNCaP tumors (PSA+) and PC3 (PSA−) tumors", "experiment": "In vivo specificity imaging, LNCaP (PSA+) versus PC3 (PSA−) tumors, FMT2500", "conditions": "male Nu/Nu mice, 2 nmoles intravenously, imaged 24 hours later", "method": "FIG. 2B is a histogram comparing fluorescence between prostate cancer expressing (PSA positive) and control (PSA negative) mice injected with the prostate specific antigen activatable agent (compound A10) and imaged tomographically.\nImaging studies were performed in LNCaP tumors (PSA+) and PC3 (PSA−) tumors tumor-bearing male Nu/Nu mice. The mice were injected intravenously with 2 nmoles of compound A10 and imaged 24 hours later on the FMT2500 (PerkinElmer Inc., Waltham, Mass.). Tumor fluorescence from positive and control mice was quantified and plotted."}, "complexed PSA": {"biological_target": "complexed PSA (Homo sapiens, UniProt P07288)", "sequence (P07288 25-261)": "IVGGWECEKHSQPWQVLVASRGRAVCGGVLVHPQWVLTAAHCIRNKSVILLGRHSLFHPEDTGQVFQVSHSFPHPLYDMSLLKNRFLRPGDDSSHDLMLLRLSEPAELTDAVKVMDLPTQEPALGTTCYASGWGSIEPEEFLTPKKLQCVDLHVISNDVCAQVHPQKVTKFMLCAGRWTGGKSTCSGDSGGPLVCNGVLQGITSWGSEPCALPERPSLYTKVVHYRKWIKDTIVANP", "sequence (P01011 24-423 partner)": "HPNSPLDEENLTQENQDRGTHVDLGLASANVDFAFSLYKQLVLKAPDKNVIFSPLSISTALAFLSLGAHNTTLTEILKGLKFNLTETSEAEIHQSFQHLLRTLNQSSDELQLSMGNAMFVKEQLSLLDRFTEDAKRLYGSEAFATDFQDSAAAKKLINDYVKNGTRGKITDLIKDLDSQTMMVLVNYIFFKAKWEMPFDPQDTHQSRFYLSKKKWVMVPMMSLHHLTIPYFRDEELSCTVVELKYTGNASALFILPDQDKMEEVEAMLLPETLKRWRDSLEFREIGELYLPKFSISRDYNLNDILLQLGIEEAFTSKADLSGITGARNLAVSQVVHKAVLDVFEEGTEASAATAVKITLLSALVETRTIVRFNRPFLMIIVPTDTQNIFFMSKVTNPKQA", "experiment": "In vitro activation of agent by complexed (inactive) PSA, kinetic fluorescence reading", "assay_type": "biochemical", "conditions": "0.5 μM agent, optimized buffer pH 7.5", "method": "(§1) Data in FIG. 1 depict activation of the prostate specific antigen activatable agents (compound A10).\n(§2) Kinetic fluorescence readings were performed in a Gemini fluorescence plate reader at different times after adding the enzyme.\n(§3) In this experiment, fluorescence is only associated with the test agents (compound A10) in the prescence of active PSA described herein."}, "active PSA": {"biological_target": "active PSA (Homo sapiens, UniProt P07288)", "sequence (P07288 25-261)": "as the sequence (P07288 25-261) above", "experiment": "In vitro activation (cleavage) of agent by enzymatically active PSA, kinetic fluorescence reading", "assay_type": "biochemical", "conditions": "0.5 μM agent, 0.1 μM activated enzyme, TCNB buffer pH 7.5", "method": "as §1, §2, §3"}, "[2]": {"tested_on": "human prostate PSA+ LNCaP tumor", "experiment": "In vivo imaging of prostate cancer, FMT2500 reflectance and tomography, IVIS Spectrum", "conditions": "male Nu/Nu mice, 2 nmoles intravenously, imaged 6 hours later", "method": "FIG. 2A depicts epi-fluorescent reflectance and tomographic images for sites of active PSA detected in prostate cancer expressing mice six hours post-injection using a prostate specific antigen activatable agent (compound A10).\nAs depicted in FIG. 2A, imaging studies were performed in human prostate PSA^+ LNCaP tumor-bearing male Nu/Nu mice. The mice were injected intravenously with 2 nmoles of test agent (compound A10) and were imaged 6 hours later on the FMT2500 (PerkinElmer Inc., Waltham, Mass.) (FMT 2D for epifluorescence, FMT 3D for tomography) in reflectance and tomographic modes, and on the IVIS Spectrum (PerkinElmer Inc., Waltham, Mass.)."}}, "note": "Non-standard residues stand in square brackets, D forms with d. Y‑mPEG ~40 kDa = Y-mPEG amine, ~40 kDa, coupled at C-terminal carboxyl; Hyp = O=C(O)[C@@H]1C[C@@H](O)CN1; Chg = N[C@H](C(=O)O)C1CCCCC1"}
{"substance": "A10 (Ac-K[Hyp]SS[Chg]QSSK-{Y‑mPEG ~40 kDa}; also: conjugated with NHS ester of fluorophore F8, sites not given here) [Compound A10]", "values": [{"measurement": "specificity of tumor fluorescence for PSA positive over PSA negative tumors", "setting": "[1]", "value": "specificity the prostate specific antigen activatable agents have for tumors containing enzymatically active PSA over PSA negative tumors in vivo"}, {"measurement": "activation (fluorescence) in the presence of complexed PSA", "setting": "complexed PSA", "value": "not complexed PSA"}, {"measurement": "activation (fluorescence) in the presence of active PSA", "setting": "active PSA", "value": "activated in the presence of active PSA"}, {"measurement": "detection of sites of enzymatically active PSA in vivo", "setting": "[2]", "value": "Sites of active PSA are detected in the same locations for both reflectance and tomographic imaging"}]}
